The values below come from patent US20030082135A1, “Pathway of RANTES-mediated chemokine synthesis in astrocytes and methods of use therefor” (priority 2001, published 2003).

Type in all cases: cell-based, mouse
In one series the test system is murine KC promoter. Briefly: KC promoter luciferase reporter in transfected astrocytes. To be noted: 100 ng/ml RANTES, 24 h. The text has this:
Plasmids, transient transfection, and luciferase activity assay. The KC reporter plasmid was constructed by using a luciferase reporter gene pGL-3 basic vector (Promega, Madison, Wis.) driven by mouse KC promoter (−2878/+43). Wild-type p90RSK expression (WT pKH3) and dominant negative p90RSK expression (ΔΔ RSK pKH3) plasmids were obtained from Dr. John Blenis, Harvard Medical School. Astrocytes were transiently transfected with Lipofectamine 2000 reagent (Life Technologies, Gaithersburg, Md.) according to the manufacturer's protocol. After 24 h, the cells were stimulated with RANTES in absence or presence of the indicated inhibitor, and luciferase activity was determined after an additional 24 h, by the procedure according to the manufacturer (Promega, Madison, Wis.). Relative luciferase activity was normalized for cell lysate protein concentration as determined by BCA protein assay kit (Pierce, Rockford, Ill.). The Relative Fold Induction is the relative intensity of the experimental sample divided by the relative intensity of the medium control.
To establish whether RANTES up-regulation of chemokine production is mediated by activation of promoter elements, primary astrocyte cultures were transiently transfected with a murine KC promoter-luciferase construct, and reporter activity was monitored after RANTES treatment.
In general terms: A reporter such as luciferase makes a cellular process visible.

A further series has as its system PKA. Briefly: PKA activity assay on lysates of treated astrocytes. The method, then:
PKA activity assay. PKA activity was determined using a commercially available kit (Calbiochem, San Diego, Calif.) according to manufacturer's recommendations. Primary mouse astrocytes were grown in 6-well plates and then stimulated as described and lysed in 100 μl buffer (same buffer used for Western blotting) for 30 min. Five μl of the lysates were incubated with 20 μl PKA reaction mixture at 30° C. for 30 min. The reaction was terminated by adding 10 μl stop solution and ^32P radioactivity was counted.

For series [1], the system named is ICAM-1 and CX3CR1 on astrocytes. Nature of the series: Flow cytometric analysis of astrocyte receptor proteins. The method, then: Flow cytometric analyses. PBS with 0.1% sodium azide was used for all washes and antibody (Ab) dilutions. Cells were pre-incubated 15 min with 0.5 μg Fc Block (BD-PharMingen) then 40 min at 4° C. with 1 μg of the appropriate Ab or matched isotype control immunoglobulin. Fluorescence-labelled cells were analyzed on a Coulter Profile II flow cytometer (Coulter, Hialeah, Fla.).
Another marker of activated astrocytes in MS and EAE lesions is the increased expression of the adhesion receptor, ICAM-1 (Lee, et al., 1999. J Immunol 165:4658-4666). Control astrocyte cultures were stained with anti-ICAM-1, and RANTES treatment further increased the levels of ICAM-1 protein expression about three-fold (mean intensity 50.2 vs. control of 16.3).
The cell surface receptor CX3CR1 was also selected for analysis since astrocyte expression of this receptor may facilitate interactions with endothelial cells and neurons that carry the membrane-tethered ligand for this receptor (Bacon, et al, 2000. J Neuroimmunol 104:92-97). Anti-CX3CR1 stained about 50% of the control astrocyte population. […] The modulation of receptor proteins peaked at 24 h; similar patterns were noted after a 48 h incubation with RANTES but the intensity levels were intermediate between the 0 and 24 h values.

The test system of another series is astrocytes. Briefly: ELISA of KC, TNF-α and MCP-1 protein in astrocyte culture supernatants. To be noted: 48 h, 1.5 to 100 ng/ml tested. (In general: ELISA stands for enzyme-linked immunosorbent assay.)

As to RANTES, in the series on murine KC promoter, the “stimulation of KC promoter-luciferase reporter activity” value is recorded as “about four”. In the series with PKA (100 ng/ml RANTES, 20 min), the “inhibition of PKA activity” value is recorded as 60%. For the same substance, the “time of maximal reduction of PKA kinase activity” value in the series with PKA (after RANTES stimulation) came out at 10 min. The “time of peak modulation of receptor proteins” value in series [1] (RANTES) worked out at 24 h. For the same substance, the “increase of ICAM-1 protein expression” value in series [1] (RANTES treatment vs control astrocytes) is given as “about three”. Further, the ICAM-1 mean intensity in series [1] (RANTES treatment, control 16.3) is 50.2. In series [1] (RANTES treatment, control of 6.0 as printed), this substance yielded a CX3CR1 mean intensity of 14.3. Further, the “cells stained with anti-CX3CR1” value in series [1] (after RANTES, control about 50%) is “less than 30%”. In the series with astrocytes, the “concentration inducing KC protein” value is at least 10 ng/mL.
